In US20240238228A1, “COMPOSITIONS AND METHODS FOR TREATING ALLERGIES AND INFLAMMATORY CONDITIONS” (UNIVERSITY OF PITTSBURGH-OF THE COMMONWEALTH SYSTEM OF …, priority 2021, published 2024):

How the values were obtained:
Type in all cases: cell-based, murine
BMMCs [1] = test: IgE+Ag-activated BMMCs: cytokine release (ELISA) and RNA (RT-PCR)
Experimental: Mast cells were differentiated from murine bone marrow as has been described. In brief, marrow was expunged from the femurs and tibias of female mice. Cultures were maintained in complete MC/9 medium containing recombinant murine IL-3 (25 ng/mL, Peprotech) for 4-6 weeks prior to use. Peritoneal MCs (PMCs) were expanded from peritoneal washes with MC/9 medium supplemented with IL-3 (25 ng/mL) and SCF (Peprotech, 10 ng/mL) for 21 days. Purity of BMMCs and PMCs was confirmed to be greater than 95% (FIG. 8A). To initiate signaling via the FcεRI, MCs were loaded with IgE (1.0 μg/ml, clone SPE-7, Sigma) for a minimum of 1 h then crosslinked with dinitrophenyl-human serum albumin (DNP-HSA, 100 ng/mL or as indicated). NKA (either LifeTein (Summerset, NJ) or Phoenix Pharmaceuticals (Burlingham, CA)) stock solutions were prepared in tissue culture grade water (100 μM) and stored at -20° C. for a maximum of 30 days. Glyburide (Cayman Chemical) was prepared in DMSO then diluted in PBS. Calpain activity was detected from cell-free supernatants using the Calpain-Glo Protease Assay (Promega). Supernatants were incubated with substrate for 10 min prior to luminescent detection. In some experiments, glyburide or vehicle (0.1% DMSO) were added to cells 10 min prior to Ag. ELISA kits from eBioscience (IL-13), BioLegend, (TNF and IL-10) or RayBiotech (NKA) and used in accord with the manufacturer's recommendations. […] Total RNA was isolated from either MCs or murine ear tissue 3 h hours after NKA injection. Tissue was homogenized in Navy RINO tubes (Next Advance) in a Bullet Blender Storm (Next Advance). RNA was extracted per standard methods with Trizol (Invitrogen). cDNA was reversed transcribed with the Quantitech Reverse Transcription Kit (Qiagen). PCR products were amplified with Fast SybrGreen (ABI) on a StepOne Plus Cycler ([…]) using the following primers: TNF […] NO: 5), TNF […] NO: 6); IL13 […] NO: 7), IL13 […] NO: 8); IL10 […] NO: 9); IL10 […] NO: 10); Bactin […] NO: 11); Bactin […] NO: 12). Data are presented as 2^-ΔΔCT using f-actin as the housekeeping gene and normalizing to either untreated cells or naïve control mice.

PMCs [2] = test: IgE+Ag-activated PMCs: cytokine release (ELISA); design: detectible levels of IL-10 / levels of IL-13: dose or concentration left out as unconfirmed
Experimental: Mast cells were differentiated from murine bone marrow as has been described. In brief, marrow was expunged from the femurs and tibias of female mice. Cultures were maintained in complete MC/9 medium containing recombinant murine IL-3 (25 ng/mL, Peprotech) for 4-6 weeks prior to use. Peritoneal MCs (PMCs) were expanded from peritoneal washes with MC/9 medium supplemented with IL-3 (25 ng/mL) and SCF (Peprotech, 10 ng/mL) for 21 days. Purity of BMMCs and PMCs was confirmed to be greater than 95% (FIG. 8A). To initiate signaling via the FcεRI, MCs were loaded with IgE (1.0 μg/ml, clone SPE-7, Sigma) for a minimum of 1 h then crosslinked with dinitrophenyl-human serum albumin (DNP-HSA, 100 ng/mL or as indicated). NKA (either LifeTein (Summerset, NJ) or Phoenix Pharmaceuticals (Burlingham, CA)) stock solutions were prepared in tissue culture grade water (100 μM) and stored at −20° C. for a maximum of 30 days. Glyburide (Cayman Chemical) was prepared in DMSO then diluted in PBS. Calpain activity was detected from cell-free supernatants using the Calpain-Glo Protease Assay (Promega). Supernatants were incubated with substrate for 10 min prior to luminescent detection. In some experiments, glyburide or vehicle (0.1% DMSO) were added to cells 10 min prior to Ag. ELISA kits from eBioscience (IL-13), BioLegend, (TNF and IL-10) or RayBiotech (NKA) and used in accord with the manufacturer's recommendations.

BMMCs [3] = test: Avidin / LAMP-1 surface staining of activated BMMCs; design: effect on LAMP-1^+ and avidin^+ BMMCs: dose or concentration left out as unconfirmed
Experimental: (§1) MCs were collected and washed with PBS containing 0.5% BSA and 0.1% sodium azide. Non-specific binding was inhibited using FcBlock (PBS with 2.0% goat serum and 0.25 mg/mL anti-CD16/32 (clone 2.4G2, BD Biosciences). Surface staining was done with anti-CD117 eFluor450 (clone 2B8, ThermoFisher), anti-FcεRI FITC (clone MAR-1, ThermoFisher) and anti-ABCA1 Alexa Fluor 647 (clone 5A1-1422, BioRad). Cells were washed with Wash Buffer (PBS with 0.5% BSA and 0.1% sodium azide). To detect differences in granulated proteins at the cell surface, IgE-loaded MCs were activated with DNP-HSA with or without NKA in Tyrode's Buffer for 30 min, washed with Wash Buffer then stained with Avidin Alexa Fluor488 (Invitrogen, Av488, 0.8 μg/5×10^5 cells) and anti-LAMP-1 PE (clone eBio 1D48, ThermoFisher). Data were acquired on either a LSRII or a Fortessa (BD BioSciences). Analysis was performed with FlowJo v10.4 (BD Biosciences).

PMCs [4] = test: Avidin / LAMP-1 surface staining of activated PMCs; design: percentage of LAMP-1^+ and avidin^+ PMCs: dose or concentration left out as unconfirmed
Experimental: as §1

calpain = test: Calpain activity in cell-free supernatants of activated BMMCs
Experimental: Calpain activity was detected from cell-free supernatants using the Calpain-Glo Protease Assay (Promega). Supernatants were incubated with substrate for 10 min prior to luminescent detection. In some experiments, glyburide or vehicle (0.1% DMSO) were added to cells 10 min prior to Ag. ELISA kits from eBioscience (IL-13), BioLegend, (TNF and IL-10) or RayBiotech (NKA) and used in accord with the manufacturer's recommendations.

[5] = IL-10 KO BMMCs (absence of autocrine IL-10)
[6] = overnight activation with IgE+Ag in the presence of NKA
[7] = control Mcpt5Cre^+×IL10^WT PMCs

`COc1ccc(Cl)cc1C(=O)NCCc1ccc(S(=O)(=O)NC(=O)NC2CCCCC2)cc1` [glyburide, reference compound] was tested, and the “NKA-mediated inhibition with added glyburide” value (BMMCs [1]; glyburide and NKA (1000 nM), BMMCs or PMCs, 20-24 h) was “did not further increase”, the “detectible levels of IL-10” value (BMMCs [1]; glyburide, 20-24 h in culture) was “increased” and the “levels of IL-13” value (BMMCs [1]; glyburide, 20-24 h in culture) was “decreased”. The “levels of TNF” value (BMMCs [1]; glyburide, 20-24 h in culture) was “decreased”, the “levels of TNF” value (PMCs [2]; glyburide 50 mM, 20-24 h in culture) was “decreased” and the “detectible levels of IL-10” value (PMCs [2]; glyburide, 20-24 h in culture) was “increased”. The “levels of IL-13” value (PMCs [2]; glyburide, 20-24 h in culture) was “decreased”, the “effect on LAMP-1^+ and avidin^+ BMMCs” value (BMMCs [3]; IgE-activated 30 minutes) was “less robust effect” and the “percentage of LAMP-1^+ and avidin^+ PMCs” value (PMCs [4]; IgE-activated 30 minutes) was “reduced the percentage”. For the same compound, the calpain activity (calpain; increasing concentrations of glyburide 10 min prior to activation, supernatants 30 min after activation) was “reduced”.
Neurokinin A [NKA] was tested, and the “IL10 RNA” value (BMMCs [1]; 60 min after activation) was “increased”, the IL13 transcription (BMMCs [1]; 60 min after activation) was “inhibited” and the TNF transcription (BMMCs [1]; 60 min after activation) was “inhibited”. For the same compound, the IL-13 release (BMMCs [1]; [5]) was “did not inhibit”, the TNF release (BMMCs [1]; [5]) was “did not inhibit” and the IL-13 release (BMMCs [1]; [6]) was “inhibited”. For the same compound, the TNF release (BMMCs [1]; [6]) was “inhibited”, the “IL-10 protein in supernatants” value (BMMCs [1]; overnight culture with NKA) was “significant increase” and the IL-13 release (PMCs [2]; [7]) was “inhibited”. The TNF release (PMCs [2]; [7]) was “inhibited”, the “effects of NKA on IL-13 and TNF release” value (PMCs [2]; without PMC-derived IL-10 (Mcpt5Cre^+×IL10^fl/fl)) was “reversed” and the “avidin^+ granules and LAMP-1 on the cell surface” value (BMMCs [3]; 30 min after activation, with or without NKA) was “equivalent amounts”. The “percentage of avidin^+ and LAMP-1V PMCs” value (PMCs [4]; 30 min after activation, compared to control) was “reduced the percentage” and the extracellular calpain activity (calpain; IgE+Ag with or without NKA for 60 min) was “significantly downregulated”.
